Consider 19 molecules from ChEMBL document CHEMBL4229538, “Design, synthesis and structure-activity relationship of diaryl-ureas with novel isoxazol[3,4-b]pyridine-3-amino-structure as multi-target inhibitors against receptor tyrosine kinase” (Bioorg Med Chem, 2018).

In assay [1] the target is Platelet-derived growth factor receptor beta (Homo sapiens, UniProt P09619). In words: Inhibition of human PDGFRbeta using biotin labeled substrate after 1 hr by HTFR assay.
Assay [2] concerns the target Vascular endothelial growth factor receptor 2 (Homo sapiens, UniProt P35968).
Description: Inhibition of human KDR using biotin labeled substrate after 1 hr by HTFR assay
Assay [3] concerns the target T1, Receptor-type tyrosine-protein kinase FLT3 (Homo sapiens, UniProt P36888).
T1 sequence (P36888 whole entry): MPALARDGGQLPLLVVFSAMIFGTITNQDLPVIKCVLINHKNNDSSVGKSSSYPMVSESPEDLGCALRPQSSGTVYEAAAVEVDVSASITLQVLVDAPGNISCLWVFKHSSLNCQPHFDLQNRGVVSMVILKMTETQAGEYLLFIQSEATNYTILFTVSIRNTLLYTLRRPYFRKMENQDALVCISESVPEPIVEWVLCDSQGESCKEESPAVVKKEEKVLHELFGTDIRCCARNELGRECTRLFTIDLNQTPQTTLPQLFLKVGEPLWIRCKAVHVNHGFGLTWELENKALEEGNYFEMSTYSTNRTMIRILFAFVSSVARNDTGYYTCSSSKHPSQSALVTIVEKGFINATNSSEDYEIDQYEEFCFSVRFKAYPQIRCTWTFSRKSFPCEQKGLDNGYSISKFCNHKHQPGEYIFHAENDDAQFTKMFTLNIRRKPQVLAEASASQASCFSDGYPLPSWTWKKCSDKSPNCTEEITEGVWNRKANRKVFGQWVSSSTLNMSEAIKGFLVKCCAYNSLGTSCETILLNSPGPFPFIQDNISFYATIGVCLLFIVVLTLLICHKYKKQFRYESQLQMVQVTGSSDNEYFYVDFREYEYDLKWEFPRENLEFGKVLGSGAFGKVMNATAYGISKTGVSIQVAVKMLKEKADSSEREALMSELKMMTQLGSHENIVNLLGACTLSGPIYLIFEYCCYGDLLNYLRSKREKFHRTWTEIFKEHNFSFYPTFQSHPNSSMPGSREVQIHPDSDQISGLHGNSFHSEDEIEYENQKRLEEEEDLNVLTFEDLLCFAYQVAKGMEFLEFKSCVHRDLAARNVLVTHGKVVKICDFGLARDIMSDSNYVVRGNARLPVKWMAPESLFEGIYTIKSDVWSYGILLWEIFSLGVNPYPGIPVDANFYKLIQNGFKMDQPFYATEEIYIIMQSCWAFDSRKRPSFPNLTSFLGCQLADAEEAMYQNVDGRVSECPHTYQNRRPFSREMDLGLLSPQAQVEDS
Description: Inhibition of human FLT3 using biotin labeled substrate after 1 hr by HTFR assay

Another assay concerns MV4-11. In words: Antiproliferative activity against human MV4-11 cells after 72 hrs by cell titer glo-based fluorescence assay. To be noted: MV4-11, 72 h. In general terms: In ATP-based viability assays light output follows the ATP content of the culture.
The next assay deals with MCF7. In words: Antiproliferative activity against human MCF7 cells after 72 hrs by cell titer glo-based fluorescence assay. The settings on record: MCF7, 72 h.
The next assay relates to HUVEC. In words: Antiproliferative activity against HUVEC after 72 hrs by cell titer glo-based fluorescence assay. The settings on record: Homo sapiens.

Sequence of Platelet-derived growth factor receptor beta (P09619 whole entry): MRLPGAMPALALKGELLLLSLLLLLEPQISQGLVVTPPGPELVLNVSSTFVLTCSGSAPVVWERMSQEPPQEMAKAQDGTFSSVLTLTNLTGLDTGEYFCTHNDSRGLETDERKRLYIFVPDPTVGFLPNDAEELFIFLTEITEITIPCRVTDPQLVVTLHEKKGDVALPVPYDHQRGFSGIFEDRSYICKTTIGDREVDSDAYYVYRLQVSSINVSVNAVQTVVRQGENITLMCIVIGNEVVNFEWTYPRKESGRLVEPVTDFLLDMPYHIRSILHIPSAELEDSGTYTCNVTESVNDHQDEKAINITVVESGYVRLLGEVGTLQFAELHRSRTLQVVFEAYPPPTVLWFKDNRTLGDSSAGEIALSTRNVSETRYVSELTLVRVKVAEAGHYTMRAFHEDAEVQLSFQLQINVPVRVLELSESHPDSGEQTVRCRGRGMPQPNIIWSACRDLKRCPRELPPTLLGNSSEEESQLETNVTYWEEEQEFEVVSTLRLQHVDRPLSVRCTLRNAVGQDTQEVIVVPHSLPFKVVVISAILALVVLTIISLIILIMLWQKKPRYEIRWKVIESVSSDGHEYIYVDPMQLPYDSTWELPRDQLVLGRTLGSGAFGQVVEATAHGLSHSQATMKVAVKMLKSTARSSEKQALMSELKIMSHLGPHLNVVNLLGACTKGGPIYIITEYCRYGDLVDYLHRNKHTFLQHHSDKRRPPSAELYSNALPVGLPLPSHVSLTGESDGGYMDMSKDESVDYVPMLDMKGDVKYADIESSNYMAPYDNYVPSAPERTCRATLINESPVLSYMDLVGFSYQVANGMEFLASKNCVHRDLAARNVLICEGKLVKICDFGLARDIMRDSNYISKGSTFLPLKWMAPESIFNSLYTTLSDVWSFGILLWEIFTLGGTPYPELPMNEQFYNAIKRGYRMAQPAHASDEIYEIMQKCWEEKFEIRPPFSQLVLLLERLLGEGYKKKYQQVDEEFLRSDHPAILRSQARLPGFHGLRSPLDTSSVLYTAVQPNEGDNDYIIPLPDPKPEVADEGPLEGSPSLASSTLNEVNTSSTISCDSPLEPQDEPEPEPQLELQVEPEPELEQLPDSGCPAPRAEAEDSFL
Sequence of Vascular endothelial growth factor receptor 2 (P35968 whole entry): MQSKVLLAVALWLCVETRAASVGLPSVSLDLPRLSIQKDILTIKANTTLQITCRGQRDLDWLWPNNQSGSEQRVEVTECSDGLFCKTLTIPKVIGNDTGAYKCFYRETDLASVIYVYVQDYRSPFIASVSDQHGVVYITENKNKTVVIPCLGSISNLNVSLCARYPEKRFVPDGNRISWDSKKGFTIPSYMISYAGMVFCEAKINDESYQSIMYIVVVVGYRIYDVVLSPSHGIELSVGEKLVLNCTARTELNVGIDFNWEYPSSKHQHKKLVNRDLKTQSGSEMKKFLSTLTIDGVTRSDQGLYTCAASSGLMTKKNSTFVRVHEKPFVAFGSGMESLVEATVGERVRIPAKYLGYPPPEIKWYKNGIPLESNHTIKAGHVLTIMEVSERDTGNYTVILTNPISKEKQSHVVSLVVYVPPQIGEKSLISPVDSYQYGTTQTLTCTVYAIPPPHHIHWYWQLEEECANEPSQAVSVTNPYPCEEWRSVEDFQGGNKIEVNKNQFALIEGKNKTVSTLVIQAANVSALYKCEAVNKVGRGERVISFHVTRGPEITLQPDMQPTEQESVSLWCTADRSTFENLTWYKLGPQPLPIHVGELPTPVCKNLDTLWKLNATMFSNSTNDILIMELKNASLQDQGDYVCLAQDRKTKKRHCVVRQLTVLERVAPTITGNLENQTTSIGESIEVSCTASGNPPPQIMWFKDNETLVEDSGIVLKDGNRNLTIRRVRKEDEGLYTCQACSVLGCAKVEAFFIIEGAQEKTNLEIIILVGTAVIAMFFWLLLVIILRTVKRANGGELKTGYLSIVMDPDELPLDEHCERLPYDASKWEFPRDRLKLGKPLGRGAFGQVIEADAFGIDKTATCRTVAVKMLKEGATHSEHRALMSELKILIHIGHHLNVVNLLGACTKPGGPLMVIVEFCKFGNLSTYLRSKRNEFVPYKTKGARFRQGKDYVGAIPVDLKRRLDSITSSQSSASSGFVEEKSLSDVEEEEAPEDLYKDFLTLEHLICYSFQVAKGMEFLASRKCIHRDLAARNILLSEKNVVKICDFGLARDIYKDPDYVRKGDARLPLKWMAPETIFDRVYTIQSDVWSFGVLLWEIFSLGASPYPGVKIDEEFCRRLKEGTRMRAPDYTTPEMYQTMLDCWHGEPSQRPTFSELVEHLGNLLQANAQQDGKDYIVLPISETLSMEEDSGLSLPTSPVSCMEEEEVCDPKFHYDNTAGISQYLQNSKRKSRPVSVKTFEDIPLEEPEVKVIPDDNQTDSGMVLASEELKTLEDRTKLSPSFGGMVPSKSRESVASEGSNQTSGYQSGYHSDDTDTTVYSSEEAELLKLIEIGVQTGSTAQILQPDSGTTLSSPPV

Usually IC50 stands for the point on the concentration scale where inhibition reaches its midpoint. For `Cc1ccc(NC(=O)Nc2ccc(-c3cc(-c4ccccc4)nc4noc(N)c34)cc2)cc1`, the IC50 in assay [1] (read-out: IC50) was 1260 nM; in assay [2] it was “Not Active”.

As to `Nc1onc2nc(-c3ccccc3)cc(-c3ccc(NC(=O)Nc4ccccc4F)cc3)c12`, the IC50 entry in assay [3], in assay [1] and in assay [2] was “Not Active” throughout.

Take `Nc1onc2nc(-c3ccccc3)cc(-c3ccc(NC(=O)Nc4cccc(F)c4)cc3)c12`: the IC50 in assay [1] (read-out: IC50) stood at 3250 nM.

On to `Cc1cccc(NC(=O)Nc2ccc(-c3cc(-c4ccccc4)nc4noc(N)c34)cc2)c1`, for which the IC50 in assay [1] (read-out: IC50) was 1230 nM.

For the molecule `Nc1onc2nc(-c3ccccc3)cc(-c3ccc(NC(=O)Nc4cccc(Cl)c4)cc3)c12`, the IC50 in assay [1] (read-out: IC50) came to 2230 nM.

As to `Cc1cc(-c2ccc(NC(=O)Nc3ccccc3Cl)cc2)c2c(N)onc2n1`, the half-maximal inhibitory concentration (IC50) in assay [1] (read-out: IC50) came out at 820 nM.

Take `Cc1ccc(F)c(NC(=O)Nc2ccc(-c3cccc4[nH]nc(N)c34)cc2)c1` [LINIFANIB]: the IC50 worked out at 690 nM in the assay on MV4-11, 17000 nM in the assay with MCF7 and 40100 nM in the assay on HUVEC.

For `COc1ccc(NC(=O)Nc2ccc(-c3cc(-c4ccccc4)nc4noc(N)c34)cc2)cc1`, the IC50 result in assay [1] and in assay [2] was “Not Active” in each case.

As to `C=CC(=O)Nc1ccc(NC(=O)Nc2ccc(-c3cc(-c4ccccc4)nc4noc(N)c34)cc2)cc1`, the IC50 entry in assay [3], in assay [1] and in assay [2] was “Not Active” in each case.

With `C=C(CN1CCOCC1)C(=O)Nc1ccc(NC(=O)Nc2ccc(-c3cc(C)nc4noc(N)c34)cc2)cc1C`, the IC50 in assay [1] (read-out: IC50) came to 510 nM.

In the case of `Nc1onc2nc(-c3ccccc3)cc(-c3ccc(NC(=O)Nc4ccc(Cl)c(C(F)(F)F)c4)cc3)c12`, the IC50 in assay [1] (read-out: IC50) is 290 nM.

As to `Nc1onc2nc(-c3ccccc3)cc(-c3ccc(NC(=O)Nc4ccccc4)cc3)c12`, the IC50 was 3520 nM in assay [1] (read-out: IC50) and “Not Active” in assay [2].

Turning to `Nc1onc2nc(-c3ccccc3)cc(-c3ccc(NC(=O)Nc4ccc(F)cc4)cc3)c12`, the IC50 in assay [1] (read-out: IC50) was found to be 3780 nM.

As for `Cc1cccc(NC(=O)Nc2ccc(-c3cc(C)nc4noc(N)c34)cc2)c1`, the IC50 in the assay on MV4-11 amounted to 120 nM; with MCF7, 10500 nM; in assay [1] (read-out: IC50), 8 nM; in the assay on HUVEC, 11700 nM.

Turning to `C/C=C\C(=O)Nc1ccc(NC(=O)Nc2ccc(-c3cc(C)nc4noc(N)c34)cc2)cc1`, the IC50 entry in assay [1] and in assay [2] was “Not Active” each time.

As for `Cc1cc(-c2ccc(NC(=O)Nc3cccc(Cl)c3)cc2)c2c(N)onc2n1`, the IC50 is 540 nM in the assay with MV4-11, 39500 nM in the assay on MCF7, 40 nM in assay [1] (read-out: IC50) and 15200 nM in the assay on HUVEC.

`Cc1cc(-c2ccc(NC(=O)Nc3cccc(C(F)(F)F)c3)cc2)c2c(N)onc2n1`: the half-inhibitory concentration (IC50) was 610 nM with MV4-11, 37400 nM in the assay with MCF7, 20 nM in assay [1] (read-out: IC50) and 7950 nM in the assay on HUVEC.

As for `Cc1cc(-c2ccc(NC(=O)Nc3ccc(Cl)c(C(F)(F)F)c3)cc2)c2c(N)onc2n1`, the IC50 in the assay with MV4-11 was 340 nM; with MCF7, 28800 nM; in assay [1] (read-out: IC50), 20 nM; in the assay on HUVEC it was 12600 nM.

With `C/C=C\C(=O)Nc1ccc(NC(=O)Nc2ccc(-c3cc(C)nc4noc(N)c34)cc2)cc1C`, the IC50 entry in assay [1] and in assay [2] was “Not Active” each time.
